We go through two molecules from PubChem BioAssay (NCI).

Holding throughout (experiment): NCI tumour cell line growth inhibition, 48 h
Assay [1] deals with DLD-1 colon.
Assay [2] concerns DMS 114 small cell lung.
The subject of assay [3] is DMS 273 small cell lung.
Assay [4] concerns HOP-18 NSCLC.
The test system of assay [5] is M19-MEL melanoma.
For assay [6], the system named is P388 leukemia.
The test system of assay [7] is P388/ADR leukemia.
For assay [8], the system named is SN12K1 renal.
Assay [9] has as its system SNB-78 CNS.
Assay [10] deals with XF 498 CNS.
Assay [11] has as its system KM20L2 colon.

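Results reflect a 48-hour exposure of cells in 96-well plates to compound at five concentrations. TGI: total growth inhibition.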

`O=C(c1ccccc1O)c1cc(-c2ncc3c(=O)c4ccccc4oc3n2)c(-c2ccccc2O)[nH]c1=O`: the TGI in [1] was above 61.5 µM; in assay [2], 80.4 µM; in [3] it was 88.3 µM; in assay [4], above 100 µM; in assay [5], above 68.2 µM; in [6], 47.8 µM. For the same molecule, the TGI in assay [7] was 61 µM; in assay [8], 35.1 µM; in assay [9] it was above 88.1 µM; in [10] it was 67.9 µM.
In the case of `O=Cc1c(Br)[nH]c2ccccc12`, the TGI in assay [1], in assay [3], in assay [4], in assay [11], in assay [5] and in assay [6] was above 100 µM throughout. The TGI in assay [7], in [8], in [9] and in assay [10] was above 100 µM in each case.
